Drawing on ChEMBL document CHEMBL1151229, “Isolation and structure of gustastatin from the Brazilian nut tree Gustavia hexapetala” (2004), this text covers GI50 for 5 molecules.

For orientation: GI50 means the concentration that inhibits growth by half. High values mean less potent growth inhibition, low ones more potent growth inhibition.

≈ marks a conversion by molar mass, not a printed value.

Format in all cases: functional
The subject of one test is DU-145. Kind of test: Cytotoxicity against human DU145 cells.
In the next test the test system is NCI-H460. The test is described as follows: Cytotoxicity against human NCI-H460 cells.
In a further test the test system is P388. Kind of test: Cytotoxicity against mouse P388 cells.
The next test deals with SF-268. Kind of test: Cytotoxicity against human SF268 cells.
In the next test the test system is BXPC-3. The test is described as follows: Cytotoxicity against human BxPC3 cells.
In the next test the test system is MCF7. Kind of test: Cytotoxicity against human MCF7 cells.
Another test concerns KM-20L2. The test is described as follows: Cytotoxicity against human KM20L2 cells.

As for `C[C@H]1[C@@H](O)[C@@H](C)[C@@]2(O[C@@H]1C)[C@@H](C)[C@H]1OC(=O)[C@]2(C)C(=O)[C@@H]1C` [PORTENTOL], the GI50 is 1.3 µg/mL (≈ 4.19 µM) in the test with DU-145; 4.7 µg/mL (≈ 15.1 µM) in the test with NCI-H460; more than 10 µg/mL with P388; 4.7 µg/mL (≈ 15.1 µM) in the test on SF-268; 7 µg/mL (≈ 22.6 µM) with BXPC-3; more than 10 µg/mL in the test with MCF7. The same molecule yielded a GI50 in the test on KM-20L2 of more than 10 µg/mL.
In the case of `COc1cc(C)c2c(=O)c3c(O)cc(OC)cc3oc2c1` [LICHEXANTHONE], the GI50 in the test with DU-145 was 3.7 µg/mL (≈ 12.9 µM); with NCI-H460, 7.1 µg/mL (≈ 24.8 µM); with P388 it was more than 10 µg/mL; in the test on SF-268 it was 3 µg/mL (≈ 10.5 µM); with BXPC-3, 2.5 µg/mL (≈ 8.73 µM); in the test on MCF7, 4.1 µg/mL (≈ 14.3 µM). In the test with KM-20L2, the concentration for 50% growth inhibition (GI50) turned out to be 2 µg/mL (≈ 6.99 µM).
`CCCCCC(=O)Cc1cc(OC)cc(O)c1C(=O)Oc1cc(CC(=O)CCCCC)c(C(=O)OC)c(OC)c1` [GUSTASTATIN]: the GI50 was 5.2 µg/mL (≈ 9.34 µM) in the test with DU-145; 5.1 µg/mL (≈ 9.16 µM) in the test on NCI-H460; more than 10 µg/mL in the test with P388; 7.9 µg/mL (≈ 14.2 µM) in the test on SF-268; more than 10 µg/mL in the test with BXPC-3; 6.4 µg/mL (≈ 11.5 µM) with MCF7. The molecule also returned a GI50 in the test with KM-20L2 of more than 10 µg/mL.
As for `C=C(C)[C@@H]1CC[C@]2(C(=O)O)CC[C@]3(C)[C@H](CC[C@@H]4[C@@]5(C)CC[C@H](O)C(C)(C)[C@@H]5CC[C@]43C)[C@@H]12` [BETULINIC ACID], the GI50 in the test with DU-145 was 5 µg/mL (≈ 10.9 µM); in the test with NCI-H460, 4.7 µg/mL (≈ 10.3 µM); in the test on P388, more than 10 µg/mL; with SF-268, 0.86 µg/mL (≈ 1.88 µM); with BXPC-3, 0.85 µg/mL (≈ 1.86 µM); in the test with MCF7 it was 1.1 µg/mL (≈ 2.41 µM). The molecule further returned a GI50 with KM-20L2 of 3.4 µg/mL (≈ 7.44 µM).
As for `CC1(C)C=Cc2cc3ccc(=O)oc3cc2O1` [XANTHYLETIN], the GI50 with DU-145 is 2.9 µg/mL (≈ 12.7 µM); in the test on NCI-H460 it was 9 µg/mL (≈ 39.4 µM); with P388, more than 10 µg/mL; in the test on SF-268, 11.2 µg/mL (≈ 49.1 µM); in the test with BXPC-3, 5.5 µg/mL (≈ 24.1 µM); in the test with MCF7, 5.9 µg/mL (≈ 25.8 µM). Moreover, in the test with KM-20L2, halving of growth (GI50) required 6.3 µg/mL (≈ 27.6 µM).
